In PMC6691761, “Potential multifunctional agents with anti-hepatoma and anti-inflammation properties by inhibiting NF-кB activation” (Journal of Enzyme Inhibition and Medicinal Chemistry, 2019):

Experiments:
HepG2 xenografts = HepG2 xenografts growth in nude mice; assay type: in vivo, Balb/c nude mice
Method: (§1) The HepG2 cells xenografts were established using the Balb/c nude mice (female, 7-week-old, 17–19 g, n = 30) (Shanghai Laboratory Animal Center, Shanghai Shi, China) were used to investigate the anti-hepatoma effect of 96. Animal experiments were reviewed and approved by the Binzhou Medical University Experimental Animal Committee. Briefly, HepG2 cells (1 × 10^7/0.2 ml PBS/mouse) were inoculated subcutaneously. Three days after the inoculation, the mice were randomly divided into five groups: the saline treated group (Control), 96 (0.2 mg/kg) group, 96 (1.0 mg/kg) treated group, 96 (5.0 mg/kg) treated group, and DOX (1.0 mg/kg) treated group. 96 were dissolved in saline containing 1% of DMSO and administered intraperitoneally every 2 d for 20 days. DOX was also administered intraperitoneally every 2 d for 20 d. The body weight and HepG2 xenografts volumes were recorded from the day of treatment, and xenografts volumes were calculated using the equation: tumour volume = length×(width)[2]×π/6. At the end of the experiment, mice were sacrificed and the xenografts were obtained for western blotting, HE staining and immunohistochemistry staining.

[1] = test system: p-p65 in TNF-α-stimulated HepG2 cells; assay: TNF-α-stimulated phosphorylation of p65 in HepG2 cells; assay type: cell-based, human; details: HepG2, 1.0, 2.0, and 4.0 μM
Method: (§2) The HepG2 cells were treated with BAP 96 at different concentrations (1.0, 2.0, and 4.0 µM) for 3 h, and washed twice by PBS. The cells were lysed and the extracted proteins of cell lysates were separated by 10% SDS-PAGE gel electrophoresis, then transferred onto polyvinylidene fluorides membranes. The membranes were probed with antibodies and visualized using an enhanced chemiluminescence (ECL) detection kit.
(§3) It is known that NF-κB has been implicated in the crossroad of inflammation and cancer[25]^,[26]. In our previous study, some BAPs (such as 23 and 67) could inhibit NF-κB activation by inhibiting the phosphorylation of NF-κB (P65) and IκB[13]^,[14]. Herein, it is an urgent to resolve whether 96 has the same mechanism of action as 23 and 67. Therefore, the RAW264.7 cells were pretreated with LPS, and then treated with different concentrations (1.0, 2.0, 4.0 μM) of 96. […] Similarly, the HepG2 cells were pretreated with TNF-α, then treated with different concentrations (1.0, 2.0, and 4.0 μM) of 96.

[2] = test system: Bcl-2 expression in HepG2 xenografts; assay: Immunohistochemistry staining of Bcl-2 in HepG2 xenografts; assay type: in vivo, Balb/c nude mice; details: 96 5.0 mg/kg, DOX 1.0 mg/kg, versus model group
Method: as §1
The HepG2 xenografts tissues were embedded using the paraffin, and sectioned for HE staining and immunohistochemistry staining. HE staining was performed routinely. The immunohistochemistry staining carried out as following. […]

[3] = test system: p-IκBα in LPS-stimulated RAW264.7 cells; assay: LPS-stimulated phosphorylation of IκBα in RAW264.7 cells; assay type: cell-based; details: RAW264.7, 1.0, 2.0, 4.0 μM
Method: as §2, §3

[4] = test system: p-p65 in LPS-stimulated RAW264.7 cells; assay: LPS-stimulated phosphorylation of p65 in RAW264.7 cells; assay type: cell-based; details: RAW264.7, 1.0, 2.0, 4.0 μM
Method: as §2, §3

HepG2 cells = assay: Apoptosis assay, annexin V staining, flow cytometry; assay type: cell-based, human; details: 2.0 μM, 24 h
Method: After treated with BAP 96 (1.0, 2.0, and 4.0 μM) and DMSO for 24 h. HepG2 cells were washed and added with 500 μL of Binding Buffer, 5 μL of Annexin V-EGFP and 5 μL of Propidiumlodide and mix (BD Biosciences, San Jose, CA) according to the manufacturer’s instruction. The mixed solution was gently vortexed and incubated in the dark at RT for 15 min. The results were detected by flow cytometry (BD FACS Calibur, San Jose, CA) within 1 h.

[5] = test system: human normal hepatic cell line (LO2); assay: Toxicity to normal cells, MTT assay, LO2; assay type: cell-based; details: Homo sapiens, 24 h
Procedure, shortened: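 Seed 1 × 10^4 cells/well, 24 h; treat 24 h, 10 concentrations 0.01–50 μg/mL, final DMSO 0.1% v/v; MTT 4 h, 37 °C; DMSO solubilisation; OD 570 nm. Viability % vs untreated; IC50, n = 3.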

[6] = Body weight of xenograft mice; assay type: in vivo; details: 0.2, 1.0, 5.0 mg/kg i.p. every 2 d for 20 days
Method: as §1

## CN1CC(=Cc2cccc(N=Cc3cc(Br)ccc3O)c2)C(=O)C(=Cc2ccccc2F)C1 [Compound 96]
HepG2 xenografts; 0.2 mg/kg intraperitoneally every 2 d for 20 days
  Growth of HepG2 xenografts: slightly decreased the growth of HepG2 xenografts
HepG2 xenografts; 1.0 mg/kg intraperitoneally every 2 d for 20 days
  Growth of HepG2 xenografts: slightly decreased the growth of HepG2 xenografts
HepG2 xenografts; 5.0 mg/kg intraperitoneally every 2 d for 20 days
  Growth of HepG2 xenografts: significantly inhibited the growth of HepG2 xenografts
[1]
  Phosphorylation of p65 induced by TNF-α: dose-dependent downward trend
[2]
  Bcl-2 expression, immunohistochemistry: significantly reduced
[3]
  Expression level of LPS-induced p-IκBα: effectively decreased in a dose-dependent manner
[4]
  Expression level of LPS-induced p-p65: effectively decreased in a dose-dependent manner
HepG2 cells
  Apoptosis rate of HepG2 cells: 24.4%
[5]
  IC50: 19.9 ± 0.4 µM
[6]
  Toxicity judged by mice body weight: correspondingly nontoxic at the experimental doses
